Test results as given in patent US8716558B2, “Method of altering glycosylation of proteins in response to nojirimycin glucuronide in a plant cell expressing glucuronidase” (Marker Gene Technologies, Inc., priority 1999, dated 2014).

Tests used:
[1] = test system: E. coli strains CSH23/S90C and CSH22/S90C; assay: Bacterial growth assay under non-inducing conditions (loss of activity upon conjugation); format: cell-based; details: 10 μg/ml 5FUR or 16.2 μg/ml M0174, M9 media, FIG. 1
Method: E. coli strains CSH23/S90C and CSH22/S90C were tested with 5-fluorouridine (5FUR) and the 5FUR-galactoside conjugate described in Example 16, 5-fluorouridine-5′-O-β-D-galactopyranoside, (M0174) to confirm loss of biological activity upon conjugation. CSH23 is a strain inducible for lacZ expression; CSH22 is a deletion mutant for lacZ and is therefore uninducible. Other strains with these properties are commercially available. When grown under non-inducing conditions, neither strain will produce β-galactosidase. Each strain was innoculated into 10 mL M9 minimal media and grown in non-inducing conditions, shaking at 37° C. overnight. Overnight cultures (500 μL) were transferred into […] fresh M9 media and grown to logarithmic phase for 4 hours prior to beginning the experiments. 1 mL of this culture was transferred to 10 ml fresh M9 media containing 10 μg/ml 5FUR, 16.2 μg/ml M0174, or no additions, and returned to the incubator. Growth curves were generated by removing aliquots of each culture at 30 minute intervals and reading absorbance at 420 nm. All final data was run in duplicate trials.

[2] = test system: E. coli CSH36/S90C and CSH22/S90C co-culture; assay: Co-culture bystander effect, colony growth on X-gal plates; format: cell-based; details: 10 μg/ml 5FUR or 16.2 μg/ml M0174, plated on X-gal
Method: E. coli strains CSH36/S90C and CSH22/S90C were grown in co-culture and tested with the 5FUR-galactoside conjugate described in Example 16, 5-fluorouridine-5′-O-β-D-galactopyranoside, (M0174) to show translocation of drug released in β-Gal expressing cells to other cells in the culture. CSH36 is a constitutive mutant for lacZ and therefore produces β-galactosidase regardless of induction conditions. CSH22 is a deletion mutant for lacZ and is therefore uninducible. Each strain individually and both strains together were innoculated into 10 mL aliquots of M9 minimal media and grown shaking at 37° C. overnight. Overnight cultures (500 μL) were transferred into 10 mL fresh M9 media and grown to logarithmic phase for 4 hours prior to beginning the experiments. 1 mL of this culture was transferred to 10 ml fresh M9 media containing 10 μg/ml 5-fluorouridine (5FUR), 16.2 μg/ml M0174, or no additions, and returned to the incubator. Growth curves were generated by removing aliquots of each culture at 30 minute intervals and reading absorbance at 420 nm. Remaining portions of these cultures were allowed to grow overnight, and final absorbance readings were taken. […] Plates were incubated at 37° C. for 48 hours, then evaluated for growth of white (indicating lacZ −, CSH22 cells) and blue (indicating lacZ+, CSH36 cells) colonies.

[3] = test system: D5 tumor cells lipofected with a lacZ containing vector; assay: In vivo pulmonary tumor growth, lipofected tumor cells; parameters: species or system C57/J(B6) mice
Method: To test the efficacy of pro-drug delivery in vivo for initiation and mediation of a host cellular immune response to genetically modified tumor, C57/J(B6) mice (22-36 g each) are injected intravenous with 50 μL HBBS containing 1×10^6 D5 tumor cells that are either untreated, lipofected with a vector containing the lacZ gene, lipofected with a vector containing both the lacZ and the H-2K allogeneic major histocompatability complex (MHC) class I gene (Wahl, et al, 1995), or lipofected with a vector containing the H-2K gene alone. After 2 days, accumulation of the tumor cells in the lung tissue is expected. Two animals are retained as controls, and necropsy examination and tumor staining of the lipofected animals is performed at the end of the trial, to confirm pulmonary tumor growth.
The doxorubicin-galactoside pro-drug of Example 19 is administered intraperitoneally starting at Day 3, for 20 days, to mice that received lipofected tumor cells in doses of either 5, 10 or 25 mg/kg/day, and to mice that received untreated tumor cells in doses of 50 mg/kg/day. Measurement of tumor growth is determined by necropsy examination of lung tissue and staining at day 25.

[4] = test system: E. coli CSH36/S90C and CSH22/S90C co-culture; assay: Co-culture selection, colony growth on X-gal plates; format: cell-based; details: 30 μg/ml chloramphenicol or 42 μg/ml M0165, plated on X-gal
Method: E. coli strains CSH36/S90C and CSH22/S90C were grown in co-culture and tested with the chloramphenicol galactoside pro-drug (M0165) described in Example 15, to show lack of translocation of drug released in β-galactosidase expressing cells to other cells in the culture, and therefore selection for the lacZ-cells. CSH36 is a constitutive mutant for lacZ and therefore produces β-galactosidase regardless of induction conditions. CSH22 is a deletion mutant for lacZ and is therefore uninducible. Each strain individually and both strains together were innoculated into 10 mL aliquots of M9 minimal media and grown shaking at 37° C. overnight. Overnight cultures (500 μL) were transferred into 10 mL fresh M9 media and grown to logarithmic phase for 4 hours prior to beginning the experiments. 1 mL of this culture was transferred to 10 ml fresh M9 media containing 30 μg/ml chloramphenicol, 42 μg/ml M0165, or no additions, and returned to the incubator. Growth curves were generated by removing aliquots of each culture at 30 minute intervals and reading absorbance at 420 nm. Remaining portions of the cultures were allowed to grow overnight, and final absorbance readings were taken. […] Plates were incubated at 37° C. for 48 hours, then evaluated for growth of white (indicating lacZ −, CSH22 cells) and blue (indicating lacZ +, CSH 36 cells) colonies.

[5] = test system: D5 murine melanoma cells lipofected with pCMVβ (lacZ); assay: MTT cell proliferation assay, lacZ-lipofected tumor cells; format: cell-based
Method: (§1) For the MTT assay, cells are incubated with the MTT reagent, which is turned over by live cells to a purple MTT formazan product. Turnover is directly proportional to the number of live cells, enabling a proportional measurement of the number of cells to be achieved by measuring the production of MTT formazan. Media is removed from cells in the twelve well plate and replaced with DME containing 10 mM Hepes. 0.25 mL of a 2 mg/ml solution of MTT is then added to each well, and plates are covered and wrapped with aluminum foil and incubated at 37° C. for three hours. Plates are then emptied of the media MTT solution, and 1 mL of DMSO and 125 μL of Sorensens glycine buffer are added to each well to solubilize the MTT formazan product. Absorbence of each sample is measured against a DMSO blank at 570 nm.
(§2) Lipofection of D5 murine melanoma cells with the pCMVβ plasmid containing the lacZ gene provided a lacZ positive set of cells with transient but high levels of ? -galactosidase expression. A 60 mm plate of D5 cells, 80% confluent, was lipofected for 5 hours with 3.6 μg/ml pCMVB (a plasmid containing the lacZ gene)(CLONTECH) using 36 μL lipofectAmine reagent (Life Technologies, Gibco BRL). After lipofection, fresh media was added to the cells to dilute the lipofection reagent, and cells were grown for 2 days. A cover slip of the lipofected D5 cells was stained with X-gal and transfection efficiency was estimated at 70%. D5 and lipofected D5 cells were plated in 12 well plates at a density of 12×10^3 cells per well and incubated 6 hours. The 5FUR-galactoside conjugate described in Example 16, 5-fluorouridine-5′-O-β-D-galactopyranoside (M0174) was added to cells at various concentrations and cells were incubated 6 hours, after which the media was changed. Cells were allowed to grow another 36 hours, then the MTT assay was performed to estimate the number of living cells per well. Cell numbers were expressed as a percent of the number of cells in the control well. All assay points were performed in duplicate and averaged. […]

D5 murine melanoma cells = assay: MTT cell proliferation assay, non-lipofected tumor cells; format: cell-based
Method: as §1, §2

[6] = test system: D5 mouse melanoma tumors lipofected with a lacZ vector; assay: In vivo growth of subcutaneous tumors from lacZ-lipofected cells; parameters: species or system C57/J(B6) mice; details: 25 and 50 mg/Kg/Day intraperitoneally for 4 days from Day 3
Method: (§3) The 5FUR-galactoside conjugate described in Example 16, 5-fluorouridine-5′-O-β-D-galactopyranoside (M0174) was tested to determine the reduction of tumor growth of subcutaneously implanted D5 mouse melanoma tumors that had been lipofected with a vector containing the lacZ marker gene in mice. […] C57/J(B6) mice (22-36 g each) were injected in the right flank with 50 μL HBBS containing 1×10^6D5 tumor cell that were either untreated or lipofected with a vector containing the lacZ gene. M0174 was administered intraperitoneally starting at Day 3, for 4 days, to mice that had received lipofected tumor cells in doses of either 25 or 50 mg/kg/day, and to mice that had received untreated tumor cells in doses of 100 mg/kg/day. Measurement of tumor area in mm^2 began on Day 8 and ended on Day 26. […] NO EFFECT (i.e. no significant drug release) for pro-drug on non-lipofected cells was found (even at 100 mg/Kg/Day), indicating once again a lack of biological activity for the pro-drug, M0174.

[7] = test system: D5 mouse melanoma tumors (untreated cells); assay: In vivo growth of subcutaneous tumors from non-lipofected cells; parameters: species or system C57/J(B6) mice; details: 100 mg/Kg/Day intraperitoneally for 4 days from Day 3
Method: as §3

[8] = test system: E. coli W3110 (inducible for lacZ); assay: Bacterial growth with ONPG with or without IPTG induction; format: cell-based; details: 0.3 mg/ml ONPG
Method: (§4) E. coli strains CSH36 and W3110 available from the ATCC, Manassas, Va. were tested with orthonitrophenyl β-D-galactopyranoside (ONPG), according to the procedure of Marsh, 1994, to confirm release of compound upon induction of β-galactosidase production. W3110 is a wild-type E. coli strain inducible for lacZ expression; CSH36 is a constitutive mutant for lacZ and therefore produces β-galactosidase regardless of induction conditions. Each strain was innoculated into 10 mL M9 minimal media and grown in non-inducing conditions, shaking at 37° C. overnight. W3110 was also innoculated into 10 mL M9 media containing 0.3 mM iso-propyl thiogalactoside (IPTG) (W3110i) to induce β-galactosidase production. Overnight cultures (500 μL) were transferred into 10 mL fresh M9 media (+/−IPTG) and grown to logarithmic phase for 4 hours prior to beginning the experiments. 1 mL of this culture was transferred to 10 ml fresh M9 media (+/−IPTG) containing 0.3 mg/ml ONPG or no additions, and returned to the incubator. Growth curves were generated by removing aliquots of each culture at 30 minute intervals and reading absorbance at 420 nm. All final data was run in duplicate trials (A and B). […] ONP is also toxic to the bacteria, and therefore growth was retarded in those cultures producing β-galactosidase and turning over ONPG to ONP (see below and FIG. 2).

[9] = test system: E. coli CSH36 (constitutive mutant for lacZ); assay: Bacterial growth with ONPG; format: cell-based; details: CSH36, no IPTG, 0.3 mg/ml ONPG
Method: as §4

Structure (SMILES): O=c1[nH]c(=O)n([C@@H]2O[C@H](CO)[C@@H](O)[C@H]2O)cc1F [Example 5FUR, 5-fluorouridine, reference compound]
- effect on growth (growth curves, absorbance at 420 nm) [1]: significant decrease in growth
- colony growth after overnight co-culture [2]: no growth of either cell type

Structure (SMILES): COc1cccc2c1C(=O)c1c(O)c3c(c(OC4OC(CO)C(O)C(O)C4O)c1C2=O)C[C@@](OC1OC(CO)C(O)C(O)C1O)(C(C)=O)C[C@@H]3OC1CC(N)C(OC2OC(CO)C(O)C(O)C2O)CO1 (stereo partly shown) [Example 19]
- tumor growth in lung tissue (necropsy and staining at day 25) ([3]; 5, 10 or 25 mg/kg/day intraperitoneally for 20 days from Day 3): Tumor regression
- tumor burden ([3]; animals receiving both lacZ and H-2K gene): lower tumor burden

Structure (SMILES): O=C(NC(COC1OC(CO)C(O)C(O)C1O)C(O)c1ccc([N+](=O)[O-])cc1)C(Cl)Cl [Example M0165, D(−)-threo-2,2-dichloro-N-[β-hydroxy-α-(O-β-D-galactopyranosylmethyl)-β-(4-nitrophenyl)ethyl]acetamide]
- colony growth after overnight co-culture [4]: growth of only CSH22 cells

Structure (SMILES): O=c1[nH]c(=O)n([C@@H]2O[C@H](CO[C@@H]3O[C@H](CO)[C@H](O)[C@H](O)[C@H]3O)[C@@H](O)[C@H]2O)cc1F [Example M0174, 5-Fluorouridine-5′-O-β-D-Galactopyranoside]
- effect on growth (growth curves, absorbance at 420 nm) [1]: very little effect
- activity at 0.3 µg/mL ([5]; Mus musculus, 0.3 ug/ml, 6 hours exposure, MTT after another 36 hours, read-out: D5 lipofected, % of control growth): 48%
- activity at 5 µg/mL ([5]; Mus musculus, 5 ug/ml, 6 hours exposure, MTT after another 36 hours, read-out: D5 lipofected, % of control growth): 22%
- effect on cell growth ([5]; lipofected D5 cells): growth inhibited
- activity at 0.3 µg/mL (D5 murine melanoma cells; Mus musculus, 0.3 ug/ml, 6 hours exposure, MTT after another 36 hours, read-out: D5 % of control growth): 110%
- activity at 5 µg/mL (D5 murine melanoma cells; Mus musculus, 5 ug/ml, 6 hours exposure, MTT after another 36 hours, read-out: D5 % of control growth): 87.9%
- effect on cell growth (D5 murine melanoma cells; non-lipofected cells, even at high dosage values): unaffected
- tumor growth (tumor area in mm^2, Day 8 to Day 26) [6]: slight delay in tumor growth
- tumor growth (tumor area in mm^2, Day 8 to Day 26) [7]: NO EFFECT
- colony growth after overnight co-culture [2]: no growth of either cell type

Structure (SMILES): O=[N+]([O-])c1ccccc1O[C@@H]1O[C@H](CO)[C@H](O)[C@H](O)[C@H]1O [ONPG, orthonitrophenyl β-D-galactopyranoside]
- Doubling Time ([8]; W3110, 0.3 mM IPTG): 215 min
- Doubling Time ([8]; W3110, no IPTG): 92 min
- Doubling Time (min) [9]: *not measurable
- time after start of experiments at which growth halted [9]: *growth halted approximately 2 hours after start of experiments
